The source of these data is ChEMBL document CHEMBL1833932, “Design, synthesis and SAR of indazole and benzoisoxazole containing 4-azetidinyl-1-aryl-cyclohexanes as CCR2 antagonists” (Bioorg Med Chem Lett, 2011).

Data set [1] has as its target Voltage-gated inwardly rectifying potassium channel KCNH2 (Homo sapiens, UniProt Q12809).
Description: Displacement of [3H]-astemizole from human ERG in HEK293 cells after 1 hrs by scintillation counting
In data set [2] the target is C-C chemokine receptor type 2 (Homo sapiens, UniProt P41597). Briefly: Displacement of [125I]-MCP1 from human CCR2 receptor in THP1 cells after 2 hrs by scintillation counting. Type of data set: cell-based, THP-1. (In general: Loss of bound radioactivity is the signal in a displacement assay; it reports binding, not function.)
Chain of C-C chemokine receptor type 2 (P41597 whole entry): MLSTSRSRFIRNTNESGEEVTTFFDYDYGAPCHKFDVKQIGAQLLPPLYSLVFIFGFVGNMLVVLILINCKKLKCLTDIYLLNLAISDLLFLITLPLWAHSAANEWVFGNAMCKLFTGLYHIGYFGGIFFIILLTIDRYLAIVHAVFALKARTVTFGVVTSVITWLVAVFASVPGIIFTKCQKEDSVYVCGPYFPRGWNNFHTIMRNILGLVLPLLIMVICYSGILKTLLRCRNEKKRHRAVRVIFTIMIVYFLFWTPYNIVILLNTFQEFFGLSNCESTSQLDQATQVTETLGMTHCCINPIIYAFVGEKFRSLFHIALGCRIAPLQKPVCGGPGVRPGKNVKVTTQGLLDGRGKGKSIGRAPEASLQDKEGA
For another data set, the target named is hERG (KCNH2) (Homo sapiens, UniProt Q12809). The data set is described as follows: in vitro. As to conditions: HEK293 cells that express hERG. For orientation: Block of hERG is tested as a sign of cardiac risk.
Chain of hERG (KCNH2) (Q12809 whole entry): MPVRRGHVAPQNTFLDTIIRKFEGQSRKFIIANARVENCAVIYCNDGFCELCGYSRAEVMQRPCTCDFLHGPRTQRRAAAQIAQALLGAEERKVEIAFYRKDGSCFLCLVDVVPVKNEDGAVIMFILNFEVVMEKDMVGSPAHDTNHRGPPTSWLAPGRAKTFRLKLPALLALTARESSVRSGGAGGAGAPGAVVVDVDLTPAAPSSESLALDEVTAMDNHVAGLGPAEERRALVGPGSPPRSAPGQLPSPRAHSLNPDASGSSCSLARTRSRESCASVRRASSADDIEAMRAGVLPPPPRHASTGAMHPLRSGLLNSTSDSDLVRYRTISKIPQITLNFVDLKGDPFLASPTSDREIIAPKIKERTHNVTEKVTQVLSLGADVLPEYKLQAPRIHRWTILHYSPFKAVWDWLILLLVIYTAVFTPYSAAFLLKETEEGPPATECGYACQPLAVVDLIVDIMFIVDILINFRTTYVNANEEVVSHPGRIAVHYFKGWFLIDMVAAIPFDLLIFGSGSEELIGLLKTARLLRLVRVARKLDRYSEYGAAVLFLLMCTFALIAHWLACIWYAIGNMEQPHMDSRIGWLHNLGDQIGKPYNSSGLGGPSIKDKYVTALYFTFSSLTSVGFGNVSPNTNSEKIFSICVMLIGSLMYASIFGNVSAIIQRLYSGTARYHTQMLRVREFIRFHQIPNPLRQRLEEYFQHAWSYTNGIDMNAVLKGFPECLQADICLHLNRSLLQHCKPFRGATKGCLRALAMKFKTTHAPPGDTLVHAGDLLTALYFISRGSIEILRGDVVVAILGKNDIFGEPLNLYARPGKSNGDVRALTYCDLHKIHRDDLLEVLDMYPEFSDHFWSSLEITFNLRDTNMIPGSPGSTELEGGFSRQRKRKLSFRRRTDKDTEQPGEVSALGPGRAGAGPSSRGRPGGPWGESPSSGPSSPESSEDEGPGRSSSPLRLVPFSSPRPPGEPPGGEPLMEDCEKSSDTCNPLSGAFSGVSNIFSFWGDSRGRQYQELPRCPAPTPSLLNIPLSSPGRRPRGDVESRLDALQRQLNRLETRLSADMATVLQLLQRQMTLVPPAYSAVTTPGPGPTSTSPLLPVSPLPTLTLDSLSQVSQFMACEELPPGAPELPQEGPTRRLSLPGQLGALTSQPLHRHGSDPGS
The nature of data set [3]: Apparent permeability of the compound from basolateral to apical side in human Caco2 cell membrane. Type of data set: ADME, cell-based. As to conditions: Caco-2.
Data set [4] in a line: Kinetic solubility of the compound at pH 2. Type of data set: physicochemical. As to conditions: buffer, read-out: Kinetic_solubility.
Data set [5] is described as follows: Apparent permeability of the compound from apical to basolateral side in human Caco2 cell membrane. Type of data set: ADME, cell-based. As to conditions: Caco-2. On the technique in general: Caco-2 monolayers are a common model of the intestinal barrier.
Data set [6] can be described thus: Efflux ratio of permeability from basolateral to apical side over apical to basolateral side in human Caco2 cell membrane. As to conditions: Caco-2. Type of data set: ADME, cell-based.

The IC50 is the midpoint of a concentration-inhibition curve. Read a high IC50 as weaker potency. Usually inhibition stands for the drop in the measured response relative to a control, in per cent. A higher inhibition goes with a response far below the control. The Papp B→A is the apparent permeability from the basolateral to the apical side of a cell layer. The term Papp A→B denotes the apparent permeability from the apical to the basolateral side of a cell layer. By efflux ratio is commonly meant the permeability from basolateral to apical divided by that in the opposite direction, in the common usage.

Values after ≈ are worked out from the molar mass of the structure shown.

Chain of Voltage-gated inwardly rectifying potassium channel KCNH2 (Q12809 whole entry): as above

As for `O=C(CNc1n[nH]c2ccc(C(F)(F)F)cc12)NC1CN([C@H]2CC[C@@H](O)CC2)C1`, the results for the IC50 in data set [1] and in data set [2] were 30000 nM and 530 nM, respectively.
Regarding `Cc1ccc([C@H]2CC[C@@H](N3CC(NC(=O)CNc4n[nH]c5ccc(C(F)(F)F)cc45)C3)CC2)cn1`, the IC50 in data set [1] came out at 27000 nM; in data set [2], 6 nM. The compound further gave an inhibition at 5 min, 3 µM against hERG (KCNH2) of 23%.
`N[C@H]1CC[C@@H](N2CC(NC(=O)CNc3n[nH]c4ccc(C(F)(F)F)cc34)C2)CC1`: the IC50 was more than 50000 nM in data set [1] and more than 25000 nM in data set [2].
As for `Cn1nc(NCC(=O)NC2CN([C@H]3CC[C@@H](C#N)CC3)C2)c2cc(C(F)(F)F)ccc21`, the IC50 in data set [2] is 330 nM.
`O=C(CNc1n[nH]c2ccc(C(F)(F)F)cc12)NC1CN([C@H]2CC[C@@H](n3ccccc3=O)CC2)C1`: the IC50 in data set [2] was 63 nM. This IC50 lies about 5.2-fold lower than the previous one.
Consider `CC(C)[C@H]1CC[C@@H](N2CC(NC(=O)CNc3n[nH]c4ccc(C(F)(F)F)cc34)C2)CC1`, for which the IC50 came out at 6200 nM in data set [1] and 370 nM in data set [2].
In the case of `COc1ccc([C@]2(O)CC[C@H](N3CC(NC(=O)CNc4n[nH]c5ccc(C(F)(F)F)cc45)C3)CC2)cn1`, the concentration for half-maximal inhibition (IC50) in data set [1] was 32000 nM; in data set [2] it was 16 nM. Moreover, the inhibition at 5 min, 3 µM at hERG (KCNH2) worked out at 30%.
With `Cn1nc(NCC(=O)NC2CN([C@H]3CC[C@@H](C(N)=O)CC3)C2)c2cc(C(F)(F)F)ccc21`, the IC50 in data set [1] amounted to 32000 nM; in data set [2] it was 510 nM.
Compound `O=C(CNc1n[nH]c2ccc(C(F)(F)F)cc12)NC1CN([C@H]2CC[C@@H](c3ccc4c(c3)OCO4)CC2)C1` came in with an IC50 in data set [2] of 6 nM.
Take `CCOC(=O)[C@H]1CC[C@@H](N2CC(NC(=O)CNc3nn(S(C)(=O)=O)c4ccc(C(F)(F)F)cc34)C2)CC1`: the IC50 in data set [1] was 25000 nM; in data set [2], 920 nM.
Take `CCOC(=O)[C@H]1CC[C@@H](N2CC(NC(=O)CNc3nn(C4CCCC4)c4ccc(C(F)(F)F)cc34)C2)CC1`: the IC50 in data set [1] was determined as 4100 nM; in data set [2] it was 650 nM.
As for `NC(=O)Cc1ccc([C@H]2CC[C@@H](N3CC(NC(=O)CNc4n[nH]c5ccc(C(F)(F)F)cc45)C3)CC2)cc1`, the IC50 in data set [1] came out at 9500 nM; in data set [2], 12 nM.
The compound `O=C(CNc1nn(CCO)c2ccc(C(F)(F)F)cc12)NC1CN([C@H]2CC[C@@H](c3nccs3)CC2)C1` showed an IC50 in data set [2] of 29 nM. That is a double-digit nanomolar value.
`NC(=O)n1nc(NCC(=O)NC2CN([C@H]3CC[C@@H](c4ccc5c(c4)OCO5)CC3)C2)c2cc(C(F)(F)F)ccc21`: the IC50 stood at 12000 nM in data set [1] and 82 nM in data set [2]. Also, the Papp B→A in data set [3] was found to be 2.44 ×10⁻⁶ cm/s. For the same compound, in data set [4], the solubility kinetic was found to be 3.5 µM (≈ 1.95 µg/mL). Moreover, the Papp A→B in data set [5] was 0.15 ×10⁻⁶ cm/s. Also, in data set [6], the efflux ratio came out at 16.2.
`CCOC[C@H]1CC[C@@H](N2CC(NC(=O)CNc3nn(C)c4ccc(C(F)(F)F)cc34)C2)CC1`: the IC50 in data set [1] is 5600 nM; in data set [2] it was 27 nM.
`Cn1nc(NCC(=O)NC2CN([C@H]3CC[C@@H](C4CCCCC4)CC3)C2)c2cc(C(F)(F)F)ccc21` returned an IC50 in data set [2] of 120 nM.
For the compound `CC(C)(C)NC(=O)n1nc(NCC(=O)NC2CN([C@H]3CC[C@@H](c4ccc5c(c4)OCO5)CC3)C2)c2cc(C(F)(F)F)ccc21`, in data set [2], the IC50 was 55 nM. Compared with the last compound, the IC50 is about 2.2-fold lower.
For the compound `C=CCn1nc(NCC(=O)NC2CN([C@H]3CC[C@@H](C(=O)OCC)CC3)C2)c2cc(C(F)(F)F)ccc21`, the IC50 in data set [2] amounted to 22 nM.
The same measure, in the same setting: with `O=C(CSc1n[nH]c2ccc(C(F)(F)F)cc12)NC1CN([C@H]2CC[C@@H](c3ccccc3)CC2)C1` the figure was 290 nM; with `O=C(Cn1[nH]c2ccc(C(F)(F)F)cc2c1=O)NC1CN([C@H]2CC[C@@H](c3ccccc3)CC2)C1`, 5400 nM.
Turning to `CCOC(=O)[C@H]1CC[C@@H](N2CC(NC(=O)CNc3nn(CC(F)(F)F)c4ccc(C(F)(F)F)cc34)C2)CC1`, the IC50 in data set [1] was 2500 nM; in data set [2], 230 nM.
Consider `CS(=O)(=O)N[C@H]1CC[C@@H](N2CC(NC(=O)CNc3n[nH]c4ccc(C(F)(F)F)cc34)C2)CC1`, for which the IC50 in data set [2] turned out to be 2080 nM.
On to `CCOC(=O)[C@H]1CC[C@@H](N2CC(NC(=O)CNc3noc4ccc(C(F)(F)F)cc34)C2)CC1`, for which the IC50 in data set [2] stood at 29 nM.
As to `O=C(CNc1noc2ccc(C(F)(F)F)cc12)NC1CN([C@H]2CC[C@@H](c3ccc4c(c3)OCO4)CC2)C1`, the results for the IC50 in data set [1] and in data set [2] were 1900 nM and 36 nM, respectively.
In data set [2] (thp-1), `O=C(CNc1n[nH]c2ccc(C(F)(F)F)cc12)NC1CN([C@H]2CC[C@@H](c3ccccc3)CC2)C1` (stereo in doubt; 5) yielded an IC50 of 12 nM.
Turning to `O=C(COc1n[nH]c2ccc(C(F)(F)F)cc12)NC1CN([C@H]2CC[C@@H](c3ccccc3)CC2)C1`, the IC50 in data set [2] was 510 nM.
On to `O=C(CNc1n[nH]c2ccc(C(F)(F)F)cc12)NC1CN([C@H]2CC[C@@H](c3ccccc3)CC2)C1` (stereo in doubt; 13a), for which the IC50 in data set [1] was 1200 nM; in data set [2], 12 nM.
For `Cn1nc(NCC(=O)NC2CN([C@H]3CC[C@@H](CO)CC3)C2)c2cc(C(F)(F)F)ccc21`, the IC50 in data set [2] came to 44 nM.
`Cn1nc(NCC(=O)NC2CN([C@H]3CC[C@@H](C(=O)O)CC3)C2)c2cc(C(F)(F)F)ccc21`: the IC50 in data set [1] stood at 25000 nM; in data set [2] it was 2600 nM.
As to `CCOC(=O)[C@H]1CC[C@@H](N2CC(NC(=O)CNc3nn(C(N)=O)c4ccc(C(F)(F)F)cc34)C2)CC1`, the IC50 is 20000 nM in data set [1] and 56 nM in data set [2]. Besides, the Papp B→A in data set [3] came to 3.5 ×10⁻⁶ cm/s. For the same compound, the solubility kinetic in data set [4] turned out to be 8.9 µM (≈ 4.54 µg/mL). For the same compound, the Papp A→B in data set [5] stood at 0.32 ×10⁻⁶ cm/s. In data set [6], the efflux ratio turned out to be 10.9.
With `C#C[C@H]1CC[C@@H](N2CC(NC(=O)CNc3nn(C)c4ccc(C(F)(F)F)cc34)C2)CC1`, the results for the IC50 in data set [1] and in data set [2] were more than 50000 nM and 10000 nM, respectively.
In data set [2], `Cn1nc(NCC(=O)NC2CN([C@H]3CC[C@@H](c4ccc5c(c4)OCO5)CC3)C2)c2cc(C(F)(F)F)ccc21` displayed an IC50 of 13 nM.
For `CCOC(=O)[C@H]1CC[C@@H](N2CC(NC(=O)CNc3nn(C)c4ccc(C(F)(F)F)cc34)C2)CC1`, the IC50 in data set [1] worked out at 8000 nM; in data set [2], 13 nM.
For the compound `CCOC(=O)[C@H]1CC[C@@H](N2CC(NC(=O)CNc3n[nH]c4ccc(C(F)(F)F)cc34)C2)CC1`, the IC50 was found to be 9100 nM in data set [1] and 27 nM in data set [2].
In turn, `Cn1nc(NCC(=O)NC2CN([C@H]3CC[C@@H](c4ncco4)CC3)C2)c2cc(C(F)(F)F)ccc21` showed an IC50 in data set [2] of 480 nM.
